Test: xn = mol fraction of the nth substance listed
Conditions: 100 kPa

CC[n+]1ccn(C)c1.CS(=O)(=O)[O-] + O
Conditions | electrical conductivity [S/m] | speed of sound [m/s]
293.15 K, x2 = 0.0015 | – | 1779
293.15 K, x2 = 0.1905 | – | 1793
293.15 K, x2 = 0.3226 | – | 1808
293.15 K, x2 = 0.4301 | – | 1817
293.15 K, x2 = 0.619 | – | 1851
293.15 K, x2 = 0.7573 | – | 1853
293.15 K, x2 = 0.9048 | – | 1803
298.15 K, x1 = 0.0119 | 2.19 | –
298.15 K, x2 = 0 | 0.45 | 1766
298.15 K, x2 = 0.191 | 0.707 | –
298.15 K, x2 = 0.3226 | – | 1795
298.15 K, x2 = 0.3233 | 0.851 | –
298.15 K, x2 = 0.5054 | – | 1818
298.15 K, x2 = 0.5057 | 1.24 | –
298.15 K, x2 = 0.6206 | – | 1840
298.15 K, x2 = 0.7542 | 2.37 | –
298.15 K, x2 = 0.7573 | – | 1846
298.15 K, x2 = 0.902 | 3.74 | –
298.15 K, x2 = 0.9032 | – | 1791
298.15 K, x2 = 0.9651 | 3.87 | –
303.15 K, x2 = 0 | – | 1753
303.15 K, x2 = 0.3241 | – | 1784
303.15 K, x2 = 0.427 | – | 1793
303.15 K, x2 = 0.5069 | – | 1807
303.15 K, x2 = 0.7542 | – | 1841
303.15 K, x2 = 0.9048 | – | 1779
303.15 K, x2 = 0.9662 | – | 1680
308.15 K, x2 = 0 | – | 1743
308.15 K, x2 = 0.192 | – | 1757
308.15 K, x2 = 0.3241 | – | 1771
308.15 K, x2 = 0.4286 | – | 1783
308.15 K, x2 = 0.5054 | – | 1795
308.15 K, x2 = 0.6206 | – | 1818
308.15 K, x2 = 0.7558 | – | 1838
308.15 K, x2 = 0.9032 | – | 1765
313.15 K, x2 = 0.192 | – | 1745
313.15 K, x2 = 0.3241 | – | 1760
313.15 K, x2 = 0.5084 | – | 1784
313.15 K, x2 = 0.6206 | – | 1808
313.15 K, x2 = 0.7558 | – | 1830
313.15 K, x2 = 0.9662 | – | 1668

O + CC[n+]1ccn(C)c1.CS(=O)(=O)[O-]
Conditions | electrical conductivity [S/m]
298.15 K, x1 = 1 | 0.0002

Source: a compilation of properties of binary mixtures (doi:10.1016/j.molliq.2016.11.074)
